Experimental data published in PubChem BioAssay (NCI).
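All cell lines were grown in 96-well plates and treated with compound for 48 hours. GI50 is the concentration that inhibits growth by half. Definition used: TGI = concentration required for complete inhibition of growth.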

Legend:
Experiment in all cases: growth of human tumour cells (NCI), 48 h
[1] = tested on: HOP-92 NSCLC
[2] = tested on: 786-0 renal
[3] = tested on: A549 NSCLC
[4] = tested on: MOLT-4 leukemia
[5] = tested on: OVCAR-4 ovarian
[6] = tested on: NCI-H460 lung
[7] = tested on: HCT-15 colon
[8] = tested on: NCI-H226 lung

SMILES	TGI [1] [µM]	TGI [2] [µM]	TGI [3] [µM]	TGI [4] [µM]	TGI [5] [µM]	TGI [6] [µM]	TGI [7] [µM]	TGI [8] [µM]	GI50 [1] [µM]	GI50 [2] [µM]	GI50 [3] [µM]	GI50 [4] [µM]	GI50 [5] [µM]	GI50 [6] [µM]	GI50 [7] [µM]	GI50 [8] [µM]
Nc1nncc2c1c(Br)cn2C1OC(CO)C(O)C1O (centres undefined)	62.3	> 100	> 100	> 100	> 100	> 100	> 100	> 100	–	–	–	–	–	–	–	–
NC(=O)c1ccc2c(c1)-c1nc-2nc2[n-]c(nc3nc(nc4[n-]c(n1)c1ccc(C(N)=O)cc41)-c1ccc(C(N)=O)cc1-3)c1ccc(C(N)=O)cc21.[Co+2]	> 50	> 50	> 50	> 50	> 50	> 50	> 50	> 50	> 50	19.5	> 50	> 50	> 50	> 50	> 50	> 50
CN(C)CCNC(=O)c1cccc2c1nc(-c1ccc(F)cc1)c1ccccc12	9.89	18.1	13.8	1.77	19.1	12	13.9	9.31	–	–	–	–	–	–	–	–
CC(C)N(C(=O)C12C3C4C1C1C2C3C41C#N)C(C)C (centres undefined)	> 100	> 100	> 100	> 100	> 100	> 100	> 100	> 100	–	–	–	–	–	–	–	–
Cc1ccc(C(=O)CC2(O)C(=O)Nc3c(C)cc(Cl)cc32)cc1 (centres undefined)	> 100	> 100	> 100	> 100	> 100	> 100	> 100	> 100	–	–	–	–	–	–	–	–
COC(=O)C(=O)Cc1nc2ccccc2s1	> 100	> 100	> 100	> 100	> 100	–	> 100	> 100	–	–	–	–	–	–	–	–
COC(=O)CCSC(=O)Nc1ccc(N=Nc2ccccc2)cc1	> 100	> 100	> 100	> 100	> 100	> 100	> 100	> 100	–	–	–	–	–	–	–	–
O=C(c1ccc(O)cc1O)C1C(c2ccc(O)cc2)OC(c2ccc(O)cc2)C1C(=O)c1ccc(O)cc1O (centres undefined)	–	23.2	> 100	–	> 100	> 100	–	40.4	–	–	–	–	–	–	–	–
COc1ccc(N2C(=O)c3c(c4[nH]c5ccccc5c4c4ccc(C(C)(C)C)cc34)C2=O)cc1	64.2	> 100	> 100	52	52.9	> 100	> 100	> 100	–	–	–	–	–	–	–	–
CCOC1=C2N=C(C(CC)c3ccccc3F)N=C2C(=O)c2ccccc21 (centres undefined)	> 100	> 100	> 100	> 100	> 100	> 100	> 100	> 100	–	–	–	–	–	–	–	–
Cc1ccc(NC(=O)CCc2nc(=S)[nH][nH]2)cc1	> 100	> 100	> 100	> 100	> 100	> 100	> 100	> 100	–	–	–	–	–	–	–	–
CCOC(=O)C(C)(NC(=O)c1ccc(NCc2ccc3nc(NC(=O)c4ccccc4)nc(NC(=O)c4ccccc4)c3c2)cc1)C(=O)OCC	18.9	13.3	35.2	> 100	4.18	32.5	> 100	28.4	–	–	–	–	–	–	–	–
COc1cc2ccc3c4ccccc4cnc3c2cc1OC	> 100	> 100	> 100	> 100	> 100	> 100	> 100	> 100	–	–	–	–	–	–	–	–
Nc1ccc2n[se]nc2c1	–	> 100	> 100	> 100	> 100	> 100	> 100	–	–	–	–	–	–	–	–	–
CC(=O)C1CCN(c2ccccc2)C1 (centres undefined)	> 100	> 100	> 100	> 100	> 100	> 100	–	> 100	–	–	–	–	–	–	–	–
COC1C2C[C@@H](O)CCC2C(C(=O)OCCl)C[C@H]1O (some centres undefined)	–	> 100	> 100	> 100	> 100	> 100	> 100	> 100	–	–	–	–	–	–	–	–
NC1NC=NC2C1N=CN2C1OC(CO)C2[O][Sn][O]C21 (centres undefined)	> 100	> 100	> 100	> 100	> 100	> 100	> 100	> 100	27.5	> 100	> 100	> 100	> 100	> 100	0.384	> 100
